Consider eight substances from ChEMBL document CHEMBL1134165, “Anthraquinone-peptides as inhibitors of AP-1 transcription factor” (Bioorg Med Chem Lett, 2001).

In the first assay the test system is Nucleic Acid. Briefly: Percent maximum loss of ethidium bromide (EtBr) fluorescence bound to DNA (ratio 1:3) in presence of 2-peptide conjugate. To be noted: Bos taurus. The assay is classed as nucleic-acid assay.
With H-AKCRDA-OH, the Quench stood at 5%. As to H-AKCRKRA-OH, the Quench was 45%.

A further assay relates to Nucleic Acid. Briefly: Delta Tm is the difference between the melting temperature of calf thymus DNA in the presence and absence of 2-peptide conjugate at a 10:1 ratio of DNA/drug. To be noted: Bos taurus. Format: nucleic-acid assay.
In the case of H-AAKCRAA-OH, the ΔTm worked out at 6. Still for that read-out and setting: with H-AKCRA-OH the figure was 7.5; with H-AKCRDA-OH, 5.5. On the same count and under the same terms, for H-AKCRDRA-OH the value was 10.3; for H-AKCRKA-OH, 7.3; for H-AKCRKRA-OH, 9.

Take H-AKSRA-OH: the ΔTm stood at 5.5.

Another assay deals with Nucleic Acid. Description: Delta Tm is the difference between the melting temperature of calf thymus DNA in the presence and absence of 2-peptide conjugate at a 10:1ratio of DNA/drug. The assay is classed as nucleic-acid assay. As to conditions: Bos taurus.
Turning to H-ARCKA-OH, the ΔTm was found to be 4.8.
